According to US20190343908A1, “Therapeutic Combination for the Treatment of Cancer” (Nerium Biotechnology Inc., priority 2011, published 2019):

How the values were obtained:
[1] = system: HCT-116 (colorectal cancer); test: Methyl-Tetrazolium viability assay, HCT-116; assay type: cell-based, human; design: key: absorbance (optical density) at 570 nm, second wavelength subtracted; details: for Average MTT: HCT-116
Excerpt: (§1) Three different viability assays were chosen to complement each other and yielded results dependent on concentration and cell line: the Methyl Tetrazolium dye assay, the Sulforhodamine B fluorescent dye assay, and the Crystal Violet dye assay.
The Methyl-Tetrazolium dye assay measures the activity of enzymes in mitochondria. The dye precursor is taken up by cells, where it undergoes reduction to the purple formazan. It measures only the mitochondrial activity and, thus, it is not always a reliable indication of whether the cells themselves are alive or dead, since even a recently dead cell has […] enzyme activity in mitochondria. Intracellular glucose concentration, pH, and time before assay all affect the measurements.
(§2) The Methyl Tetrazolium, Sulforhodamine B, and Crystal Violet assays were used to assess cell viabilities. The incubation times were 24 hours, 48 hours, and 72 hours. The Nerium oleander extract Anvirzel™ (a hot water extract of oleander obtained from Salud Integral, Honduras) was tested in concentrations ranging from 0.01 ng/mL to 10 ng/mL.
(§3) Cells were detached by trypsinization (Trypsin-0.25% EDTA, Invitrogen, 25200-072) during the logarithmic phase of culture growth and plated in 96-well plates (18.000 cells/well) (Corning, Costar 359) in a final volume of 200 μl of medium per well. […] The absorbance was measured after 24 hours, 48 hours, and 72 hours of incubation.
For the Methyl-Tetrazolium assay, the dye (Sigma, M2128; 5 mg/mL, diluted in phosphate-buffered saline) was added to each well and plates were incubated for 3 hours at 37° C. After the end of the incubation period, the medium was discarded and the cells were rinsed with phosphate-buffered saline. Finally, the formazan crystals were dissolved in dimethylsulphoxide (Sigma, D4540).
(§4) The optical density of each plate was measured on a μQuant spectrophotometer and the data were analyzed with Gen5 software (μQuant Biomolecular Spectrophotometer MQX200 and Gen5™ Microplate Data Collection & Analysis software, BioTek® Instruments. Inc, April 2008). Absorbance was measured at 570 nm for all assays and a second wavelength was measured in order to subtract noise. For the Methyl-Tetrazolium assay this second wavelength was 630 nm and for the Sulforhodamine B and Crystal Violet assays it was 690 nm.

[2] = system: T47D (human breast cancer); test: Sulforhodamine B viability assay, T47D; assay type: cell-based; design: key: absorbance (optical density) at 570 nm, second wavelength subtracted
Excerpt: as §1
The Sulforhodamine B and Crystal Violet assays provide information about protein and were used to complement the Methyl-Tetrazolium dye assay. […] It is used for the quantification of cellular proteins of cultured cells. The assay using Crystal Violet, a dye that binds electrostatically to proteins and stains DNA, provides a reliable, simple assay for measuring viability of cells.
as §2, §3
For the Sulforhodamine B assay, 96-well plates were fixed by 10% trichloroacetic acid (Fluka, 91228) and were incubated at 4° C. for 1 hour. Afterwards, plates were rinsed with water and cells were stained with 0.4% Sulforhodamine B (Sigma, 341738), dissolved in 1% acetic acid (Carlo Ebra, 401422) for 15 minutes at room temperature (RT). The unbound stain was washed twice with 1% acetic acid. Finally, 10 mM Tris Buffer pH 10.5 (Sigma, T6791) was added to dissolve the dye.
as §4

N.N.[Cl][Pt][Cl] [cisplatin]
MTT Average ([1]; HCT-116, Run 3, 24 h, 0.1 μg/ml CDDP): 0.16
MTT Average ([1]; HCT-116, Run 3, 24 h, 1 μg/ml CDDP): 0.041
MTT Average ([1]; HCT-116, Run 3, 24 h, 10 μg/ml CDDP): 0.09
MTT Average ([1]; HCT-116, Run 3, 24 h, 100 μg/ml CDDP): 0.044
MTT Average ([1]; HCT-116, Run 3, 48 h, 0.1 μg/ml CDDP): 0.302
MTT Average ([1]; HCT-116, Run 3, 48 h, 1 μg/ml CDDP): 0.039
MTT Average ([1]; HCT-116, Run 3, 48 h, 10 μg/ml CDDP): 0.108
MTT Average ([1]; HCT-116, Run 3, 48 h, 100 μg/ml CDDP): 0.037
MTT Average ([1]; HCT-116, Run 3, 72 h, 0.1 μg/ml CDDP): 0.385
MTT Average ([1]; HCT-116, Run 3, 72 h, 1 μg/ml CDDP): 0.041
MTT Average ([1]; HCT-116, Run 3, 72 h, 10 μg/ml CDDP): 0.147
MTT Average ([1]; HCT-116, Run 3, 72 h, 100 μg/ml CDDP): 0.043
Average MTT ([1]; Run 1, 24 h, 0.1 μg/ml CDDP): 0.215
Average MTT ([1]; Run 1, 24 h, 1 μg/ml CDDP): 0.037
Average MTT ([1]; Run 1, 24 h, 10 μg/ml CDDP): 0.072
Average MTT ([1]; Run 1, 24 h, 100 μg/ml CDDP): 0.038
Average MTT ([1]; Run 1, 48 h, 0.1 μg/ml CDDP): 0.184
Average MTT ([1]; Run 1, 48 h, 1 μg/ml CDDP): 0.027
Average MTT ([1]; Run 1, 48 h, 10 μg/ml CDDP): 0.054
Average MTT ([1]; Run 1, 48 h, 100 μg/ml CDDP): 0.031
Average MTT ([1]; Run 1, 72 h, 0.1 μg/ml CDDP): 0.332
Average MTT ([1]; Run 1, 72 h, 1 μg/ml CDDP): 0.03
Average MTT ([1]; Run 1, 72 h, 10 μg/ml CDDP): 0.033
Average MTT ([1]; Run 1, 72 h, 100 μg/ml CDDP): 0.031
Average MTT ([1]; Run 2, 24 h, 0.1 μg/ml CDDP): 0.111
Average MTT ([1]; Run 2, 24 h, 1 μg/ml CDDP): 0.053
Average MTT ([1]; Run 2, 24 h, 10 μg/ml CDDP): 0.081
Average MTT ([1]; Run 2, 24 h, 100 μg/ml CDDP): 0.072
Average MTT ([1]; Run 2, 48 h, 0.1 μg/ml CDDP): 0.179
Average MTT ([1]; Run 2, 48 h, 1 μg/ml CDDP): 0.044
Average MTT ([1]; Run 2, 48 h, 10 μg/ml CDDP): 0.045
Average MTT ([1]; Run 2, 48 h, 100 μg/ml CDDP): 0.04
Average MTT ([1]; Run 2, 72 h, 0.1 μg/ml CDDP): 0.296
Average MTT ([1]; Run 2, 72 h, 1 μg/ml CDDP): 0.054
Average MTT ([1]; Run 2, 72 h, 10 μg/ml CDDP): 0.045
Average MTT ([1]; Run 2, 72 h, 100 μg/ml CDDP): 0.037
SRB Average ([2]; T47D Run 1, 24 h, 1 μg/ml CDDP): 1.786
SRB Average ([2]; T47D Run 1, 24 h, 10 μg/ml CDDP): 1.586
SRB Average ([2]; T47D Run 1, 24 h, 100 μg/ml CDDP): 1.494
SRB Average ([2]; T47D Run 1, 48 h, 0.1 μg/ml CDDP): 2.029
SRB Average ([2]; T47D Run 1, 48 h, 1 μg/ml CDDP): 1.913
SRB Average ([2]; T47D Run 1, 48 h, 10 μg/ml CDDP): 1.768
SRB Average ([2]; T47D Run 1, 72 h, 0.1 μg/ml CDDP): 2.34
SRB Average ([2]; T47D Run 1, 72 h, 1 μg/ml CDDP): 1.863
SRB Average ([2]; T47D Run 1, 72 h, 10 μg/ml CDDP): 1.428
SRB Average ([2]; T47D Run 2, 24 h, 0.1 μg/ml CDDP): 2.474
SRB Average ([2]; T47D Run 2, 24 h, 1 μg/ml CDDP): 1.601
SRB Average ([2]; T47D Run 2, 24 h, 10 μg/ml CDDP): 1.417
SRB Average ([2]; T47D Run 2, 24 h, 100 μg/ml CDDP): 1.102
SRB Average ([2]; T47D Run 2, 48 h, 0.1 μg/ml CDDP): 2.112
SRB Average ([2]; T47D Run 2, 48 h, 1 μg/ml CDDP): 1.969
SRB Average ([2]; T47D Run 2, 48 h, 10 μg/ml CDDP): 1.988
SRB Average ([2]; T47D Run 2, 48 h, 100 μg/ml CDDP): 1.708
SRB Average ([2]; T47D Run 2, 72 h, 0.1 μg/ml CDDP): 1.969
SRB Average ([2]; T47D Run 2, 72 h, 1 μg/ml CDDP): 1.201
SRB Average ([2]; T47D Run 2, 72 h, 10 μg/ml CDDP): 1.567
SRB Average ([2]; T47D Run 2, 72 h, 100 μg/ml CDDP): 1.513
SRB Average ([2]; T47D Run 3, 24 h, 0.1 μg/ml CDDP): 1.615
SRB Average ([2]; T47D Run 3, 24 h, 1 μg/ml CDDP): 1.846
SRB Average ([2]; T47D Run 3, 24 h, 10 μg/ml CDDP): 1.368
SRB Average ([2]; T47D Run 3, 24 h, 100 μg/ml CDDP): 1.34
SRB Average ([2]; T47D Run 3, 48 h, 0.1 μg/ml CDDP): 2.223
SRB Average ([2]; T47D Run 3, 48 h, 1 μg/ml CDDP): 2.03
SRB Average ([2]; T47D Run 3, 48 h, 10 μg/ml CDDP): 1.974
SRB Average ([2]; T47D Run 3, 48 h, 100 μg/ml CDDP): 1.758
SRB Average ([2]; T47D Run 3, 72 h, 0.1 μg/ml CDDP): 2.044
SRB Average ([2]; T47D Run 3, 72 h, 1 μg/ml CDDP): 1.344
SRB Average ([2]; T47D Run 3, 72 h, 10 μg/ml CDDP): 1.461
